Like-named read-outs stand apart in the source and are kept apart here.
Key:
[1] = tested on: L. amazonensis promastigotes; assay: Anti-promastigote assay (resazurin viability); details: for Selectivity Index (SI) CC50 J774 / IC50 promastigotes: J774A.1 vs promastigotes; for IC50: 48 h; for Selectivity Index (SI) CC50 NIH/3T3 / IC50 promastigotes: NIH/3T3 vs promastigotes; for SI (CC50 on murine peritoneal macrophages/IC50 on promastigotes): peritoneal macrophages vs promastigotes
Description: (§1) Parasites in the exponential growth phase were used for the in vitro anti-promastigote assay, while those in the stationary phase were used for the anti-amastigote assay. Intracellular amastigote forms were obtained by infecting murine peritoneal macrophages with promastigotes.
Cell viability was assessed using the resazurin (Sigma-Aldrich) assay. A solution of resazurin (Sigma-Aldrich, USA) at 0.2 mg·mL^−1 was added to each well, and after 4 h of incubation at 26 °C, the absorbances at 570 nm and 600 nm were acquired, and the viability calculation for all wells was performed based on the formula and instructions provided by the AlamarBlue® manufacturer’s website (Bio-Rad, Hercules, CA, USA) [41]. Cell viability was evaluated from the optical density and compared to untreated cells. […] The half-maximal inhibitory concentration (IC50) values for each compound were calculated using a nonlinear dose–response regression curve generated by Prism 5 (GraphPad Software, USA).

in vitro [2] = details: mouse
in vitro [3] = details: mouse; remark: listed apart in the source
[4] = tested on: L. amazonensis intracellular amastigotes; assay: Anti-amastigote assay in infected murine peritoneal macrophages; details: for IC50: Leishmania amazonensis, Peritoneal macrophage, in Mus musculus, 24 h, read-out: IC50 L. amazonensis Amastigotes
Description: as §1
Plates were incubated at 37 °C with 5% CO2 for 1 h to allow adhesion, which was confirmed by microscopy. […] Supernatants were removed after treatment, and cells were washed twice with PBS, fixed with Bouin’s solution (Sigma-Aldrich, USA), and stained with Giemsa (Sigma-Aldrich, USA) diluted 1:10 in distilled water. Coverslips were dehydrated through an acetone/xylene gradient (100%, 70%, 50%, 30%, and 100% each from Sigma-Aldrich) and mounted for microscopic visualization. The total number of intracellular amastigotes was counted in 200 cells per coverslip in three replicates using an optical microscope. The half-maximal inhibitory concentration (IC50) values were calculated for each compound using a nonlinear regression curve in GraphPad Prism 5.0 software (GraphPad Software, San Diego, CA, USA).

[5] = Leishmania amazonensis, read-out: IC50 L. amazonensis Promastigotes, 48 h, resazurin
[6] = read-out: IC50 L. amazonensis Promastigotes, resazurin

SMILES	Selectivity Index (SI) CC50 J774 / IC50 promastigotes [1]	IC50 [1, 5]	Selectivity Index (SI) CC50 NIH/3T3 / IC50 promastigotes [1]	SI (CC50 on murine peritoneal macrophages/IC50 on promastigotes) [1]	IC50 [1, 6]	CC50 at 48 h (in vitro [2]; J774A.1 macrophage cells)	CC50 at 48 h (in vitro [3]; NIH/3T3 fibroblast cells)	Selectivity Index (SI) CC50 J774 / IC50 amastigotes ([4]; J774A.1 vs intracellular amastigotes)	IC50 [4]	Selectivity Index (SI) CC50 NIH/3T3 / IC50 amastigotes ([4]; NIH/3T3 vs intracellular amastigotes)	CC50 at 48 h (in vitro [2])	CC50 at 48 h (in vitro [3])	SI (CC50 on murine peritoneal macrophages/IC50 on promastigotes) ([1]; listed as 105)	Selectivity Index (SI) CC50 J774 / IC50 amastigotes [4]	Selectivity Index (SI) CC50 NIH/3T3 / IC50 amastigotes [4]	SI (CC50 on murine peritoneal macrophages/IC50 on promastigotes) ([1]; listed as 108)
C[C@@H]1[C@H](O)[C@@H](C)/C=C/C=C/C=C/C=C/C=C/C=C/C=C/[C@H](O[C@@H]2O[C@H](C)[C@@H](O)[C@H](N)[C@@H]2O)C[C@@H]2O[C@](O)(C[C@@H](O)C[C@@H](O)[C@H](O)CC[C@@H](O)C[C@@H](O)CC(=O)O[C@H]1C)C[C@H](O)[C@H]2C(=O)O [ANFB, amphotericin B, reference compound]	2.91	9.41 ± 1.13 µM	2.05	2.67	9.4 ± 1.13 µM	27.3 ± 0.92 µM	19.3 ± 1.01 µM	28.19	0.97 ± 1.14 µM	25.92						
Oc1ccc2ccccc2c1[Se]c1ccccc1 [MRK-102]		15.2 ± 1.12 µM		13.20					> 50 µM		> 200 µM	> 200 µM				
Cc1ccc(-c2nnc([Se]c3ccccc3)o2)cc1 [MRK-103]		15.5 ± 1.13 µM		12.92					> 50 µM		> 200 µM	> 200 µM				
CC(C)(C)c1cc(O)cc(C(C)(C)C)c1[Se]C#N [MRK-105]	4.94	15.5 µM	7.22	12.92	12.2 ± 1.12 µM				> 50 µM				16.43			
COc1ccccc1[Se]c1c(-c2ccccc2)nc2cc(C)ccn12 [MRK-107]	7.31	27.4 ± 1.24 µM	7.31	7.31					18.3 ± 1.5 µM		> 200 µM	> 200 µM		10.92	10.92	
N#C[Se]Cc1cc(=O)oc2cc(O)ccc12 [MRK-108]		4.23 ± 2 µM		> 47.31					> 50 µM		> 200 µM	> 200 µM				47.31
Cc1cn2c([Se]c3ccccc3)c(-c3ccccc3)nc2s1 [MRK-111]		17.6 ± 1.18 µM		11.40					> 50 µM		> 200 µM	> 200 µM				
Cc1ccn2c([Se]c3ccccc3)c(-c3ccccc3)nc2c1 [MRK-113]	4.88	41 ± 1.31 µM	4.88	4.88					15.9 ± 1.69 µM		> 200 µM	> 200 µM		12.55	12.55	

From article PMC10812941, “Selenium-Containing (Hetero)Aryl Hybrids as Potential Antileishmanial Drug Candidates: In Vitro Screening against L. amazonensis” (Biomedicines, 2024)
